We go through 31 compounds from US20140058103A1, “Inhibitors of PI3K-Delta and Methods of Their Use and Manufacture” (Exelixis, Inc., priority 2010, published 2014).

Usually IC50 stands for the point on the concentration scale where inhibition reaches its midpoint.

A value given as a limit tells only on which side of the number the result lay.

Chain of PI3K delta (O00329 whole entry): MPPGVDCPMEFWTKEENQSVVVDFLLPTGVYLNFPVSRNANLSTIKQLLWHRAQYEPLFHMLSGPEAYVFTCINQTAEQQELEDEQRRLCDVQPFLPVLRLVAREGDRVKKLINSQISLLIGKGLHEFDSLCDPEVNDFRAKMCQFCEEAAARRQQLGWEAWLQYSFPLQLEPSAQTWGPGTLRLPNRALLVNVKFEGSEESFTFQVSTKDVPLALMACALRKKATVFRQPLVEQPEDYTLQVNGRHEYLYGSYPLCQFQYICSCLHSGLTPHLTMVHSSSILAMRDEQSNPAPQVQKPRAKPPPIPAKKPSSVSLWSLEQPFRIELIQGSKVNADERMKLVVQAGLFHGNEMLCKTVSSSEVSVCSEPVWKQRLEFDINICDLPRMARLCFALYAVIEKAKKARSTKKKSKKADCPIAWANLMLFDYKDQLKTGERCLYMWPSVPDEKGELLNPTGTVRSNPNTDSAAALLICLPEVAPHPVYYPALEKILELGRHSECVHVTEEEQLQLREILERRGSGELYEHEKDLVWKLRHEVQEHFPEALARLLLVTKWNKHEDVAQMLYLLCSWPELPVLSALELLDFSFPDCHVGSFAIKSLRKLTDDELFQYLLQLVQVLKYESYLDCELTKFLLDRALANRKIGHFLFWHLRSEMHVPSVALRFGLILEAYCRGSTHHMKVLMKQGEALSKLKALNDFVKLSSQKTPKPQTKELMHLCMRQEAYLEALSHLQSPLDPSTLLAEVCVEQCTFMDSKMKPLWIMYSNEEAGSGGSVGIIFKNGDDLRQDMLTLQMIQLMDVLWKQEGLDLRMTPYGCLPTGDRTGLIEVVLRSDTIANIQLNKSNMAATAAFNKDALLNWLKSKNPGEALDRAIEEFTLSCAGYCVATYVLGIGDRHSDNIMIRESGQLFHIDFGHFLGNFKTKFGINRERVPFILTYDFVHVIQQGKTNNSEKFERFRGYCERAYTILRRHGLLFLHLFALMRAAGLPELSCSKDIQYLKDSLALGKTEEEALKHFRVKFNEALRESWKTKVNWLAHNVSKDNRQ
Chain of PI3K delta (P27986 whole entry partner): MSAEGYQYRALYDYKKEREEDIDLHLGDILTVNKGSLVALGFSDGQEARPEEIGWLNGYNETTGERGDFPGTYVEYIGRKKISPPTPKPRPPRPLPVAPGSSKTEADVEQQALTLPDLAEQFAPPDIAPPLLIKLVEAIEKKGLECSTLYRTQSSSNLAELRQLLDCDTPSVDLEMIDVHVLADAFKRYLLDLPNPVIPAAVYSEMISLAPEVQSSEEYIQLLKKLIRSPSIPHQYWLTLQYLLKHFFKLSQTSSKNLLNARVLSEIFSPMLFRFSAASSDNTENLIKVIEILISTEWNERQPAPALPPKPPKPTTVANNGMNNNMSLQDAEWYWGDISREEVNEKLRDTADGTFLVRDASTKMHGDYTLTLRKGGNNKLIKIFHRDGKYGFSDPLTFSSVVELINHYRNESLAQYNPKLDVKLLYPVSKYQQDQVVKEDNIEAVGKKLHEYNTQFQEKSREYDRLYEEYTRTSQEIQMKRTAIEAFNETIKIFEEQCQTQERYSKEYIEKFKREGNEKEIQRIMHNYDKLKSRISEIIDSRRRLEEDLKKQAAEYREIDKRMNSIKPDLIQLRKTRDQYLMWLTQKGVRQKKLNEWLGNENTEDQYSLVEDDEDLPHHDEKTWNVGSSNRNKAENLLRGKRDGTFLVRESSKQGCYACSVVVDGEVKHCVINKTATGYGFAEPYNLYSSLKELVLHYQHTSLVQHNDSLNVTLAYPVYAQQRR

The experiment has as its target PI3K delta (Homo sapiens, UniProt O00329). Kind of experiment: Luciferase-coupled chemiluminescence kinase assay (ATP consumption, KinaseGlo). The experiment is classed as biochemical. In short, it runs like this:
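Compound, kinase and ATP (≤ KM) reacted 2 h at ambient temperature, then remaining ATP quantified with luciferase-luciferin (KinaseGlo) luminescence as percent consumed.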
On to `Cc1ncc(-c2nc3c(N4CCC(n5c(=O)[nH]c6ncccc65)CC4)ncnc3n2C)n1C` [Compound 336, 1-{1-[8-(1,2-dimethyl-1H-imidazol-5-yl)-9-methyl-9H-purin-6-yl]piperidin-4-yl)-1,3-dihydro-2H-imidazo[4,5-b]pyridin-2-one], for which the IC50 was less than 50 nM.

In turn, `Cn1c(C(=O)NCC2CC2)nc2c(N3CCC4(CC3)C(=O)Nc3c(Cl)cccc34)ncnc21` [Compound 211, 6-(7-chloro-2-oxo-1,2-dihydro-1′H-spiro[indole-3,4′-piperidin]-1′-yl)-N-(cyclopropylmethyl)-9-methyl-9H-purine-8-carboxamide] gave an IC50 of less than 50 nM.

For the compound `CCn1c(C(=O)NC2COC2)nc2c(N3CCC4(CC3)C(=O)Nc3ccccc34)ncnc21` [Compound 226, 9-ethyl-N-oxetan-3-yl-6-(2-oxo-1,2-dihydro-1′H-spiro[indole-3,4′-piperidin]-1′-yl)-9H-purine-8-carboxamide], the IC50 is less than 50 nM.

With `Cn1c(C(=O)NCC2CCCCO2)nc2c(N3CCC4(CC3)C(=O)Nc3ccccc34)ncnc21` (stereo not shown) [Compound 82, 9-methyl-6-(2-oxo-1,2-dihydro-1′H-spiro[indole-3,4′-piperidin]-1′-yl)-N-(tetrahydro-2H-pyran-2-ylmethyl)-9H-purine-8-carboxamide], the IC50 lay within 500 to 1500 nM.

Regarding `Cn1c(C(=O)NCC2CC2)nc2c(N3CCN(C4=NS(=O)(=O)c5ccccc54)CC3)ncnc21` [Compound 264, N-(cyclopropylmethyl)-6-[4-(1,1-dioxido-1,2-benzisothiazol-3-yl)piperazin-1-yl]-9-methyl-9H-purine-8-carboxamide], the IC50 lay in the range of 500 to 1500 nM.

As to `CNc1ccc(-c2nc3c(N4CCC(n5c(=O)[nH]c6ncccc65)CC4)ncnc3n2C)cn1` [Compound 354, 1-(1-{9-methyl-8-[6-(methylamino)pyridin-3-yl]-9H-purin-6-yl}piperidin-4-yl)-1,3-dihydro-2H-imidazo[4,5-b]pyridin-2-one], the IC50 is less than 50 nM.

`CCn1c(-c2cnc(OC)nc2)nc2c(N3CCC(n4c(=O)[nH]c5ccccc54)CC3)ncnc21` [Compound 306, 1-(1-{9-ethyl-8-[2-(methyloxy)pyrimidin-5-yl]-9H-purin-6-yl}piperidin-4-yl)-1,3-dihydro-2H-benzimidazol-2-one] came in with an IC50 of less than 50 nM.

In turn, `CCn1c(C(=O)NCC2(O)CC2)nc2c(N3CCC(n4c(=O)[nH]c5ccccc54)CC3)ncnc21` [Compound 188, 9-ethyl-N-[(1-hydroxycyclopropyl)methyl]-6-[4-(2-oxo-2,3-dihydro-1H-benzimidazol-1-yl)piperidin-1-yl]-9H-purine-8-carboxamide] came in with an IC50 of less than 50 nM.

Consider `COC(=O)c1nc2c(N3CCC4(CC3)C(=O)Nc3ccccc34)ncnc2n1C` [Compound 76, Methyl 9-methyl-6-(2-oxo-1,2-dihydro-1′H-spiro[indole-3,4′-piperidin]-1′-yl)-9H-purine-8-carboxylate], for which the IC50 lay in the range of 500 to 1500 nM.

The compound `CCCNC(=O)c1nc2c(N3CCC4(CC3)C(=O)Nc3ccccc34)ncnc2n1CC` [Compound 220, 9-ethyl-6-(2-oxo-1,2-dihydro-1′H-spiro[indole-3,4′-piperidin]-1′-yl)-N-propyl-9H-purine-8-carboxamide] came in with an IC50 of less than 50 nM.

The compound `Cn1cncc1-c1nc2c(N3CCC(n4c(=O)[nH]c5ccccc54)CC3)ncnc2n1C` [Compound 288, 1-{1-[9-methyl-8-(1-methyl-1H-imidazol-5-yl)-9H-purin-6-yl]piperidin-4-yl}-1,3-dihydro-2H-benzimidazol-2-one] yielded an IC50 of less than 50 nM.

Consider `CCn1c(-c2cnc(N)nc2)nc2c(N3CCC(n4c(=O)[nH]c5ccccc54)CC3)ncnc21` [Compound 304, 1-{1-[8-(2-aminopyrimidin-5-yl)-9-ethyl-9H-purin-6-yl]piperidin-4-yl)-1,3-dihydro-2H-benzimidazol-2-one], for which the IC50 was less than 50 nM.

As for `Cn1cc(-c2nc3c(N4CCC(c5c[nH]c6ccccc56)CC4)ncnc3n2C)cn1` [Compound 351, 6-[4-(1H-indol-3-yl)piperidin-1-yl]-9-methyl-8-(1-methyl-1H-pyrazol-4-yl)-9H-purine], the IC50 was 250 to 500 nM.

In turn, `CC(NC(=O)c1nc2c(N3CCC4(CC3)C(=O)Nc3ccccc34)ncnc2n1C)C1CC1` (stereo not shown) [Compound 84, N-(1-cyclopropylethyl)-9-methyl-6-(2-oxo-1,2-dihydro-1′H-spiro[indole-3,4′-piperidin]-1′-yl)-9H-purine-8-carboxamide] yielded an IC50 of 50 to 250 nM.

`Cn1cc(-c2nc3c(N4CCN(c5ccccc5CNS(=O)(=O)c5ccc6ccccc6c5)CC4)ncnc3n2C)cn1` [Compound 364, N-[(2-{4-[9-methyl-8-(1-methyl-1H-pyrazol-4-yl)-9H-purin-6-yl]piperazin-1-yl}phenyl)methyl]naphthalene-2-sulfonamide] gave an IC50 of 500 to 1500 nM.

With `Cn1c(C(=O)N2CC[C@@H](F)C2)nc2c(N3CCC4(CC3)C(=O)Nc3ccccc34)ncnc21` [Compound 110, 1′-(8-{[(3R)-3-fluoropyrrolidin-1-yl]carbonyl}-9-methyl-9H-purin-6-yl)spiro[indole-3,4′-piperidin]-2(1H)-one], the IC50 is 50 to 250 nM.

As to `COc1cc(C)ccc1S(=O)(=O)N1CCN(c2ncnc3c2nc(-c2cnn(C)c2)n3C)CC1` [Compound 385, 9-methyl-6-(4-{[4-methyl-2-(methyloxy)phenyl]sulfonyl}-piperazin-1-yl)-8-(1-methyl-1H-pyrazol-4-yl)-9H-purine], the IC50 lay within 500 to 1500 nM.

`CCn1c(C(=O)NCC(C)(C)O)nc2c(N3CCC(n4c(=O)[nH]c5ccccc54)CC3)ncnc21` [Compound 197, 9-ethyl-N-(2-hydroxy-2-methylpropyl)-6-[4-(2-oxo-2,3-dihydro-1H-benzimidazol-1-yl)piperidin-1-yl]-9H-purine-8-carboxamide] returned an IC50 of less than 50 nM.

The compound `COc1ccccc1CNC(=O)c1nc2c(N3CCC4(CC3)C(=O)Nc3ccccc34)ncnc2n1C` [Compound 26, 9-methyl-N-([2-(methyloxy)phenyl]methyl)-6-(2-oxo-1,2-dihydro-1′H-spiro[indole-3,4′-piperidin]-1′-yl)-9H-purine-8-carboxamide] returned an IC50 of 500 to 1500 nM.

`CCn1c(-c2cnc(N(C)C)nc2)nc2c(N3CCC(n4c(=O)[nH]c5ccccc54)CC3)ncnc21` [Compound 320, 1-[1-{8-[2-(dimethylamino)pyrimidin-5-yl]-9-ethyl-9H-purin-6-yl)piperidin-4-yl)-1,3-dihydro-2H-benzimidazol-2-one] returned an IC50 of less than 50 nM.

The compound `Cc1cccc(C(=O)NCc2ccccc2N2CCN(c3ncnc4c3nc(-c3cnn(C)c3)n4C)CC2)c1` [Compound 363, 3-methyl-N-[(2-{4-[9-methyl-8-(1-methyl-1H-pyrazol-4-yl)-9H-purin-6-yl]piperazin-1-yl}phenyl)methyl]benzamide] returned an IC50 of 250 to 500 nM.

As for `Cn1c(C(=O)NCC2CC2)nc2c(N3CC=C(n4c(=O)[nH]c5ccccc54)CC3)ncnc21` [Compound 289, N-(cyclopropylmethyl)-9-methyl-6-[4-(2-oxo-2,3-dihydro-1H-benzimidazol-1-yl)-3,6-dihydropyridin-1(2H)-yl]-9H-purine-8-carboxamide], the IC50 lay within 50 to 250 nM.

Regarding `Cn1c(C(=O)NC2CCC2)nc2c(N3CCC4(CC3)C(=O)Nc3ccccc34)ncnc21` [Compound 15, N-cyclobutyl-9-methyl-6-(2-oxo-1,2-dihydro-1′H-spiro[indole-3,4′-piperidin]-1′-yl)-9H-purine-8-carboxamide], the IC50 is 50 to 250 nM.

`CC(C)CNC(=O)c1nc2c(N3CCC(n4c(=O)[nH]c5ccccc54)CC3)ncnc2n1C1CC1` [Compound 173, 9-cyclopropyl-N-(2-methylpropyl)-6-[4-(2-oxo-2,3-dihydro-1H-benzimidazol-1-yl)piperidin-1-yl]-9H-purine-8-carboxamide] displayed an IC50 of 250 to 500 nM.

`Cn1c(C(=O)NC2CCC(F)(F)CC2)nc2c(N3CCC(n4c(=O)[nH]c5ccccc54)CC3)ncnc21` [Compound 107, N-(4,4-difluorocyclohexyl)-9-methyl-6-[4-(2-oxo-2,3-dihydro-1H-benzimidazol-1-yl)piperidin-1-yl]-9H-purine-8-carboxamide] had an IC50 of 50 to 250 nM.

Regarding `CCn1c(C(=O)NCC2CCOCC2)nc2c(N3CCC4(CC3)C(=O)Nc3ccccc34)ncnc21` [Compound 161, 9-ethyl-6-(2-oxo-1,2-dihydro-1′H-spiro[indole-3,4′-piperidin]-1′-yl)-N-(tetrahydro-2H-pyran-4-ylmethyl)-9H-purine-8-carboxamide], the IC50 is less than 50 nM.

`CC(CNC(=O)c1nc2c(N3CCC(n4c(=O)[nH]c5ccccc54)CC3)ncnc2n1C)c1ccccc1` (stereo not shown) [Compound 61, 9-methyl-6-[4-(2-oxo-2,3-dihydro-1H-benzimidazol-1-yl)piperidin-1-yl]-N-(2-phenylpropyl)-9H-purine-8-carboxamide] gave an IC50 of 250 to 500 nM.

`CCCCNC(=O)c1nc2c(N3CCC4(CC3)C(=O)Nc3ccccc34)ncnc2n1CC` [Compound 162, N-butyl-9-ethyl-6-(2-oxo-1,2-dihydro-1′H-spiro[indole-3,4′-piperidin]-1′-yl)-9H-purine-8-carboxamide] returned an IC50 of less than 50 nM.

`CCn1c(C(=O)NCC(F)(F)F)nc2c(N3CCC(n4c(=O)[nH]c5ccccc54)CC3)ncnc21` [Compound 155, 9-ethyl-6-[4-(2-oxo-2,3-dihydro-1H-benzimidazol-1-yl)piperidin-1-yl]-N-(2,2,2-trifluoroethyl)-9H-purine-8-carboxamide]: the IC50 was less than 50 nM.

`Cc1nc(C(F)(F)F)ccc1-c1nc2c(N3CCC(n4c(=O)[nH]c5ccccc54)CC3)ncnc2n1C` [Compound 284, 1-(1-{9-methyl-8-[2-methyl-6-(trifluoromethyl)pyridin-3-yl]-9H-purin-6-yl}piperidin-4-yl)-1,3-dihydro-2H-benzimidazol-2-one]: the IC50 was 500 to 1500 nM.

On to `Cn1c(C(=O)NCC2CC2)nc2c(N3CCC4(CC3)c3ccccc3CC4O)ncnc21` (stereo not shown) [Compound 130, N-(cyclopropylmethyl)-6-(2-hydroxy-2,3-dihydro-1′H-spiro[indene-1,4′-piperidin]-1′-yl)-9-methyl-9H-purine-8-carboxamide], for which the IC50 lay in the range of 50 to 250 nM.
